40 compounds from the METLIN SMRT retention time set (Domingo-Almenara et al. 2019) can be followed below.

Molecules are shown by their SMILES.

A short description of the data set: gradient 5% acetonitrile 3 min, to 50% in 2 min, to 85% in 15 min, held 3 min, 100 µL/min. Particulars: column: Zorbax Extend-C18 2.1 x 50 mm; eluents: water / acetonitrile, 0.1% formic acid. In outline: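 Pure standards were run in mixtures of ~100 molecules by HPLC coupled to a quadrupole time-of-flight mass spectrometer. The column was a Zorbax Extend-C18 (2.1 × 50 mm, 1.8 μm) at 100 μL/min, with water and acetonitrile each containing 0.1% formic acid, in positive and negative ionization mode. Dead and dwell volumes were 40 μL and 900 μL. Retention time was taken from computationally picked adduct peaks, each manually inspected, with data collected over 3 months.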
With `Cc1sc(-c2noc(C3CCC3)n2)cc1NC(=O)c1ccc(C(F)(F)F)cc1`, the RP-LC retention time came to 1150 s.

As for `COCC(=O)NC1CCC12CCN(C(C)=O)CC2` (stereo not given), the RP-LC retention time amounted to 589 s. Regarding `COc1cc(NC(=O)N2CCC(n3c(C)nc4cccnc43)CC2)cc(OC)c1OC`, the RP-LC retention time turned out to be 569 s. Compound `Cc1ccccc1NC(=O)/C=N/O` returned an RP-LC retention time of 636 s. Regarding `O=C(CSc1nnc2c3sc(N4CCCC4)nc3ncn12)Nc1ccc(F)c(F)c1`, the RP-LC retention time turned out to be 863 s. Take `Cc1cc(-c2nnc(-c3ccc(F)cc3)o2)c(C)n1CC(=O)N1CCCC1`: the RP-LC retention time came to 808 s. With `CCOc1ccccc1C(=O)Nc1ccc2c(c1)Sc1ncccc1C(=O)N2C`, the RP-LC retention time amounted to 806 s. Take `CCOc1ccccc1CNC(=O)C1CCCN(c2ccc(=O)n(-c3ccc(C)c(Cl)c3)n2)C1` (stereo not given): the RP-LC retention time stood at 828 s. To `CC(C)n1cnc2cc(CNC(=O)c3ccc(C#N)cc3F)ccc21` belongs 597 s. The same measure for `COc1ccccc1C(=O)N1C[C@@H]2C[C@H]1C[C@@H]2NS(C)(=O)=O`: 632 s; for `CCc1cccc(C)c1Nc1c(-c2cccc(O)c2)nc2cnccn12`: 750 s. To `CC1CC(=O)c2cnc(N3CCN(Cc4ccccc4)CC3)nc2C1` (stereo not given) belongs 643 s; to `CCN(CC)S(=O)(=O)c1ccc(-c2c(C)noc2C)cc1`, 936 s; to `O=C(CCc1ccc2cc[nH]c2c1)NCc1ccccc1`, 794 s. `Cc1cc(NC(C)C)n2c(nc3ccccc32)c1C#N` came in with an RP-LC retention time of 610 s. The same measure for `Cc1cc2nn(CC(=O)Nc3ccc(C)c(F)c3)c(=O)n2c(N2CCCC2)n1`: 805 s; for `Cc1ccc(NC(=O)Cn2c(=O)c3cc(C4CC4)nn3c3ncccc32)c(C)c1`: 808 s. To `Cc1cccc(CNC(=O)Cn2nc(C(=O)N3CCCC3)c3ccccc32)c1` belongs 828 s; to `C[C@H]1CN(C(=O)c2cc(F)cc(F)c2)C[C@@H]1c1nc(-c2ccccc2)no1`, 1040 s; to `Cc1ccc(C)c(CSc2nnc3c(S(=O)(=O)N4CCCC4)cccn23)c1`, 893 s. To `COc1ccc(C)c2sc(N(CCN(C)C)C(=O)c3cnn(-c4ccccc4)c3C)nc12` belongs 632 s; to `O=C(Cn1c(=O)c2cccn2c2ccccc21)NCCCN1CCCCCC1`, 612 s; to `CCn1cc(-c2ccccc2)cc1C(=O)NC1CCCC1`, 1080 s.

With `CCN(CC)c1ccc(/C=C2\SC(=O)NC2=O)cc1`, the RP-LC retention time amounted to 876 s. As for `Cc1ccnc(Nc2ccc(NCCNS(=O)(=O)Cc3ccccc3)nn2)c1`, the RP-LC retention time came to 570 s. `CCCCn1cc(S(=O)(=O)Nc2cc(C)ccc2F)c2cccnc21` returned an RP-LC retention time of 754 s.

`O=C(Nc1ccc2c(c1)OCCO2)C1CCN(c2cncnc2N2CCCCC2)CC1` showed an RP-LC retention time of 673 s. To `Cc1nc([C@H]2CCN(Cc3ccc4[nH]ccc4c3)C[C@H]2N(C)C)n[nH]1` belongs 520 s; to `O=C(NC1CCCN(c2cc(-c3ccncc3)[nH]n2)C1)c1ccc(F)cc1` (stereo not given), 599 s. To `Cc1ccc(NC(=O)NC2CCN(C(=O)N3C[C@H]4C[C@H](C3)[C@H]3CCCC(=O)N3C4)CC2)cc1C` belongs 702 s. Regarding `CC(=O)C1=C(O)C(=O)N(C(C)c2ccccc2)C1c1ccccc1` (stereo not given), the RP-LC retention time is 836 s. For the compound `CN(C)c1ccc2c(c1)CN(C(=O)C1CC=CC1)CCO2`, the RP-LC retention time worked out at 610 s. In turn, `O=C(O)Cn1nnc(-c2cc(N3CCC(Oc4cc(F)ccc4Br)CC3)no2)n1` gave an RP-LC retention time of 1000 s.

In turn, `CNC(=O)Nc1cccc(-c2ccc(OC)nn2)c1` returned an RP-LC retention time of 631 s. To `O=C(Nc1ccc(F)c(F)c1)C1CCc2nc(N3CCOCC3)ncc2C1` (stereo not given) belongs 742 s; to `Cc1cc(C(=O)N2CCC3(CCC3O)CC2)c(C)o1` (stereo not given), 683 s; to `CCN1C(=O)c2cccnc2Sc2cc(CNC(=O)c3cccn3C)ccc21`, 747 s.

`Cc1noc(C2CN(C(=O)Nc3cccc(Cl)c3)CC23CCOCC3)n1` (stereo not given) yielded an RP-LC retention time of 786 s. The same measure for `COc1ccc(OC)c(S(=O)(=O)NCC2(C)CCOCC2)c1`: 686 s; for `O=C(c1cccc(F)c1)N1CCC(n2nc(-c3ccsc3)ccc2=O)CC1`: 807 s.
